Laboratory results: patent US8501446B2 (Vertex Pharmaceuticals Incorporated, priority 2004, dated 2013)

Tests used:
Assay type in all cases: biochemical
[1] = target: T1, full length Aurora-A (AA 1-403) (Homo sapiens, UniProt O14965); assay: Aurora-A inhibition assay, standard coupled enzyme system; settings: average Ki if more than one value determined
T1 construct: full length Aurora-A (AA 1-403)
T1 sequence (O14965 1-403): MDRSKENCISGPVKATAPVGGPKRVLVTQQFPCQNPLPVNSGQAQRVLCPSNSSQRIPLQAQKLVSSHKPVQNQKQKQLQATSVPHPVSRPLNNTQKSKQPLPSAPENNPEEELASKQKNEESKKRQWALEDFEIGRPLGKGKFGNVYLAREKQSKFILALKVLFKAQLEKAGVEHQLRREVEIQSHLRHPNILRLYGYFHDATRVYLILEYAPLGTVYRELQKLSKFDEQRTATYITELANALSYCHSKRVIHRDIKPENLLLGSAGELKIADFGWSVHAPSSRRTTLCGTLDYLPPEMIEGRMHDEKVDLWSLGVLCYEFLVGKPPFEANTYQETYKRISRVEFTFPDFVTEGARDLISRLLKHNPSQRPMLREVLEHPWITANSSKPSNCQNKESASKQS

JAK3 = target: T2, JAK3 (Homo sapiens, UniProt P52333); assay: JAK3 inhibition assay (standard radioactive enzyme assay); settings: average Ki if more than one value determined
T2 sequence (P52333 1-1124): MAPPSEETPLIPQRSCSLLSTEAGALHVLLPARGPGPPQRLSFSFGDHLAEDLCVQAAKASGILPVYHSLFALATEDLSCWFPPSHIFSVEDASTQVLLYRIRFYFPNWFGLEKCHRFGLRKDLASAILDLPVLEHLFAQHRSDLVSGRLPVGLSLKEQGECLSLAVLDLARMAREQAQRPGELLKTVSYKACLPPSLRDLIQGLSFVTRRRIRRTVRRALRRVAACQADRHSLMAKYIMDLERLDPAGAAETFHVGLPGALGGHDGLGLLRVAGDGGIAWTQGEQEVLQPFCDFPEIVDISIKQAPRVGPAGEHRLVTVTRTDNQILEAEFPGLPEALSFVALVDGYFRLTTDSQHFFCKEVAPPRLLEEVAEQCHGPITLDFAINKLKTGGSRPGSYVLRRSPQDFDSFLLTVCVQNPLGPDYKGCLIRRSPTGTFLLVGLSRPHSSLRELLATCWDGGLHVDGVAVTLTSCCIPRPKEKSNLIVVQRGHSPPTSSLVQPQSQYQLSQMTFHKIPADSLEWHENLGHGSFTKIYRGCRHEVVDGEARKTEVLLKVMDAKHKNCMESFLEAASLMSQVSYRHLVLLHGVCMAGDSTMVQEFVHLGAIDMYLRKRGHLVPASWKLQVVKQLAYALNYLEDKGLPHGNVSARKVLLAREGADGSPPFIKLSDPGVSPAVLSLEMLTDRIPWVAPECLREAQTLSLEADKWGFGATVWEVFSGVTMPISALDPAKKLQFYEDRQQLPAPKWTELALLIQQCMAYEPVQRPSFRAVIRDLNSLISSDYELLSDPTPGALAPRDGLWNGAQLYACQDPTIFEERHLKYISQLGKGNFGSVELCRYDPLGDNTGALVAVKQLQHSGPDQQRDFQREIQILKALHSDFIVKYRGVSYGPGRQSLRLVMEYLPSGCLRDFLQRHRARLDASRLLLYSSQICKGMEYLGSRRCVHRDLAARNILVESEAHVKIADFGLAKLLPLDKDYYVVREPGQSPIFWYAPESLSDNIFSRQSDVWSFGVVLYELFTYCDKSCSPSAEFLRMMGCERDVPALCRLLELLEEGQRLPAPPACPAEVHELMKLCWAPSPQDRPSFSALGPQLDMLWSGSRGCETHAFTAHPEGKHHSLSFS

ROCK I (AA 6-553) = target: T3, ROCK I (AA 6-553) (Homo sapiens, UniProt Q13464); assay: ROCK inhibition assay, standard coupled enzyme system ("Enzyme"); settings: enzyme-linked assay
T3 construct: ROCK I (AA 6-553)
Method in brief: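 ROCK I (AA 6-553) at 45 nM and 30 °C with 45 μM ATP and 200 μM peptide, in 100 mM HEPES pH 7.5, 10 mM MgCl2, 25 mM NaCl, 2 mM DTT, 1.5% DMSO. ADP output read by a PK/LDH coupled system: 2.5 mM PEP, 350 μM NADH, 30 μg/ml PK, 10 μg/ml LDH.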

JAK2 = JAK2 (Homo sapiens, UniProt O60674); assay: JAK2 inhibition assay (radioactive enzyme assay, as for JAK3); settings: average Ki if more than one value determined
Method in brief: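 Both kinases: poly(Glu)4Tyr substrate in 100 mM HEPES pH 7.4, 10 mM MgCl2, 1 mM DTT. Run 20 min at 25° C, TCA stop, filter-bound ³³P counted, Ki(app) fitted after background subtraction. JAK3: final [γ-³³P]ATP 5 μM, enzyme added as 2 nM solution. JAK2: final poly(Glu)4Tyr 15 μM, final ATP 12 μM.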

JAK2, sequence (O60674 whole entry, species assumed): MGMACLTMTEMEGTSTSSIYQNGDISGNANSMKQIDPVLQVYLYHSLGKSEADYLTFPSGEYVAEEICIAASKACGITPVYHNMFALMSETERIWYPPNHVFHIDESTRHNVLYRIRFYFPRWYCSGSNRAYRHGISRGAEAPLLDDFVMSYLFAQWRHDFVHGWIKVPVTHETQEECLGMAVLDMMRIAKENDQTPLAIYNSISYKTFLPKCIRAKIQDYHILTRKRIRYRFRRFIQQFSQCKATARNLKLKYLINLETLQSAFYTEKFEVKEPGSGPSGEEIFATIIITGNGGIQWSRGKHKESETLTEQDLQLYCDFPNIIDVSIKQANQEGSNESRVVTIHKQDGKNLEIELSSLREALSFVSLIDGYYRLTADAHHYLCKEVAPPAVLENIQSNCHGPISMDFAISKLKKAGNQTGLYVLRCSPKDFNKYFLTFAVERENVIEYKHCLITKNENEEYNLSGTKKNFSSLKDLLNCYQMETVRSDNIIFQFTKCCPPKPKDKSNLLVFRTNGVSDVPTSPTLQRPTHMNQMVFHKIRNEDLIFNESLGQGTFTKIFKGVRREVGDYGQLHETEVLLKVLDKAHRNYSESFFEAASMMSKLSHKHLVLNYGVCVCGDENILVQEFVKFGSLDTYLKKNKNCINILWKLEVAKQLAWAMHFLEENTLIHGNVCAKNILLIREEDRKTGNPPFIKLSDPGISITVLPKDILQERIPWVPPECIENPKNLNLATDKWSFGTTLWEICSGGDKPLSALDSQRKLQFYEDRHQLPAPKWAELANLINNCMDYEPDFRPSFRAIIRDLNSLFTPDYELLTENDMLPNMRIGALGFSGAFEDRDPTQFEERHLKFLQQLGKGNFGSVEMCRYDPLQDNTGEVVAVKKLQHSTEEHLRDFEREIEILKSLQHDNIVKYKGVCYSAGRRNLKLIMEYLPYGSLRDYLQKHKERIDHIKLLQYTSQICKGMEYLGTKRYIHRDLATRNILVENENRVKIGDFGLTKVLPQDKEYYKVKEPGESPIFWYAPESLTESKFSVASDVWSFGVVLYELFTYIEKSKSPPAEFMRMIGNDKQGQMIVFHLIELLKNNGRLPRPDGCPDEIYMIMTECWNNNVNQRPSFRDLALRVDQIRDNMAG
T3 sequence (Q13464 6-553, species assumed): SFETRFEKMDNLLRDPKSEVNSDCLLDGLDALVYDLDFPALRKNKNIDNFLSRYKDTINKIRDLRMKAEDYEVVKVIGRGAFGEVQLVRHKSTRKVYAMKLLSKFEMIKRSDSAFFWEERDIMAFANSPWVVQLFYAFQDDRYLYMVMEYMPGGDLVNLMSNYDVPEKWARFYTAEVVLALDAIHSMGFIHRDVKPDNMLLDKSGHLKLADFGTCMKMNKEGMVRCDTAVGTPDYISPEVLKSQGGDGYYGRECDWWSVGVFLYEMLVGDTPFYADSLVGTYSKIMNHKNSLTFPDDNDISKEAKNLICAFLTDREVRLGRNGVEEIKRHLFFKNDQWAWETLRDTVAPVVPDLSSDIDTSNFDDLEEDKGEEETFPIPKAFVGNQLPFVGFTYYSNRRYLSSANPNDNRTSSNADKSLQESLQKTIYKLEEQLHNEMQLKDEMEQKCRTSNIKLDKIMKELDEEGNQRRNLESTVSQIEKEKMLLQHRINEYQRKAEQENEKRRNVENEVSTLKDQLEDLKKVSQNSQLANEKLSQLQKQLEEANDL

| SMILES | Ki [1] | Ki (JAK3) | Ki (ROCK I (AA 6-553)) | Ki (JAK2) |
| --- | --- | --- | --- | --- |
| COC(=O)c1ccc(-c2c[nH]c3ncc(Cl)cc23)nc1NCc1ccccc1 [Compound 43] | < 500 nM | 500 to 5000 nM | 500 to 5000 nM | 500 to 5000 nM |
| O=C(O)c1ccc(NCc2ccccc2)nc1-c1c[nH]c2ncc(Cl)cc12 [Compound 44] | < 500 nM | 500 to 5000 nM | 500 to 5000 nM | 500 to 5000 nM |
| COC(=O)c1ccc(NCc2ccccc2)nc1-c1c[nH]c2ncc(Cl)cc12 [Compound 45] | < 500 nM | < 500 nM | 500 to 5000 nM | < 500 nM |
| NC(=O)c1ccc(-c2c[nH]c3ncc(Cl)cc23)nc1NCc1ccccc1 [Compound 46] | < 500 nM | < 500 nM | 500 to 5000 nM | < 500 nM |
| CC(=O)N1[C@H](C)CN(c2cccc(-c3c[nH]c4ncc(C(=O)O)cc34)n2)C[C@@H]1C [Compound 47] | 500 to 5000 nM | < 500 nM | 500 to 5000 nM | < 500 nM |
| Fc1cnc2[nH]cc(-c3cccc(NCc4ccccc4)n3)c2c1 [Compound 48] | < 500 nM | < 500 nM | 500 to 5000 nM | < 500 nM |
| CC(=O)N1CCCN(c2cccc(-c3c[nH]c4ncc(F)cc34)n2)CC1 [Compound 49] | 500 to 5000 nM | < 500 nM | 500 to 5000 nM | < 500 nM |
| CC(=O)N1[C@H](C)CN(c2cccc(-c3c[nH]c4ncc(F)cc34)n2)C[C@@H]1C [Compound 50] | 500 to 5000 nM | < 500 nM | < 500 nM | < 500 nM |
| CC(=O)N1[C@H](C)CN(c2cccc(-c3c[nH]c4ncc(C(=O)N5C[C@@H](C)N[C@@H](C)C5)cc34)n2)C[C@@H]1C [Compound 52] | 500 to 5000 nM | > 5000 nM | 500 to 5000 nM | > 5000 nM |
| CC(=O)N1[C@H](C)CN(c2cccc(-c3c[nH]c4ncc(C(=O)OC(C)C)cc34)n2)C[C@@H]1C [Compound 53] | < 500 nM | < 500 nM | < 500 nM | < 500 nM |
| CC(=O)N1[C@H](C)CN(c2cccc(-c3c[nH]c4ncc(C(=O)N5CCCCC5)cc34)n2)C[C@@H]1C [Compound 54] | < 500 nM | 500 to 5000 nM | 500 to 5000 nM | 500 to 5000 nM |
| CC(=O)N1[C@H](C)CN(c2cccc(-c3c[nH]c4ncc(C(=O)N5CCN(C)CC5)cc34)n2)C[C@@H]1C [Compound 57] | 500 to 5000 nM | 500 to 5000 nM | 500 to 5000 nM | > 5000 nM |
| CC(=O)N1[C@H](C)CN(c2cccc(-c3c[nH]c4ncc(C(=O)NC5CCCCC5)cc34)n2)C[C@@H]1C [Compound 58] | 500 to 5000 nM | < 500 nM | 500 to 5000 nM | < 500 nM |
| CNC(=O)c1cnc2[nH]cc(-c3cccc(N4C[C@@H](C)N(C(C)=O)[C@@H](C)C4)n3)c2c1 [Compound 59] | 500 to 5000 nM | < 500 nM | 500 to 5000 nM | < 500 nM |
| CC(=O)N1[C@H](C)CN(c2cccc(-c3c[nH]c4ncc(C(=O)N(C)C)cc34)n2)C[C@@H]1C [Compound 60] | 500 to 5000 nM | 500 to 5000 nM | 500 to 5000 nM | 500 to 5000 nM |
| COC(=O)Nc1cnc2[nH]cc(-c3cccc(N4C[C@@H](C)N(C(C)=O)[C@@H](C)C4)n3)c2c1 [Compound 66] | 500 to 5000 nM | < 500 nM | 500 to 5000 nM | < 500 nM |
| CC(=O)N1[C@H](C)CN(c2cc(C(=O)O)cc(-c3c[nH]c4ncc(Cl)cc34)n2)C[C@@H]1C [Compound 67] | < 500 nM | < 500 nM | 500 to 5000 nM | < 500 nM |

| SMILES | Ki [1] | Ki (JAK3) | Ki (ROCK I (AA 6-553)) | Ki (JAK2) |
| --- | --- | --- | --- | --- |
| CC(=O)N1[C@H](C)CN(c2nc(-c3c[nH]c4ncc(Cl)cc34)c(F)cc2C#N)C[C@@H]1C [Compound 68] | < 500 nM | < 500 nM | 500 to 5000 nM | < 500 nM |
| CC(=O)N1[C@H](C)CN(c2cccc(-c3c[nH]c4ncc(NC(=O)Oc5ccccc5)cc34)n2)C[C@@H]1C [Compound 69] | 500 to 5000 nM | < 500 nM | 500 to 5000 nM | < 500 nM |
| CCOC(=O)Nc1cnc2[nH]cc(-c3cccc(N4C[C@@H](C)N(C(C)=O)[C@@H](C)C4)n3)c2c1 [Compound 70] | 500 to 5000 nM | < 500 nM | 500 to 5000 nM | < 500 nM |
| CC(=O)N1[C@H](C)CN(c2nc(-c3c[nH]c4ncc(Cl)cc34)c(F)cc2C(N)=O)C[C@@H]1C [Compound 72] | < 500 nM | < 500 nM | 500 to 5000 nM | 500 to 5000 nM |
| CC(=O)N1[C@H](C)CN(c2nc(-c3c[nH]c4ncc(Cl)cc34)ccc2[N+](=O)[O-])C[C@@H]1C [Compound 75] | < 500 nM | < 500 nM | < 500 nM | < 500 nM |
| CC(=O)N1[C@H](C)CN(c2nc(-c3c[nH]c4ncc(Cl)cc34)ccc2N)C[C@@H]1C [Compound 76] | < 500 nM | < 500 nM | 500 to 5000 nM | < 500 nM |
| CC(=O)N1[C@H](C)CN(c2ccc([N+](=O)[O-])c(-c3c[nH]c4ncc(Cl)cc34)n2)C[C@@H]1C [Compound 78] | < 500 nM | < 500 nM | 500 to 5000 nM | < 500 nM |
| CC(=O)N1[C@H](C)CN(c2nc(-c3c[nH]c4ncc(Cl)cc34)cc(C)c2C#N)C[C@@H]1C [Compound 79] | < 500 nM | < 500 nM | 500 to 5000 nM | < 500 nM |
| CC(=O)N1[C@H](C)CN(c2cc(C)c(C#N)c(-c3c[nH]c4ncc(Cl)cc34)n2)C[C@@H]1C [Compound 80] | < 500 nM | < 500 nM | 500 to 5000 nM | < 500 nM |
| CC(=O)N1[C@H](C)CN(c2ccc(N)c(-c3c[nH]c4ncc(Cl)cc34)n2)C[C@@H]1C [Compound 81] | < 500 nM | 500 to 5000 nM | 500 to 5000 nM | 500 to 5000 nM |
| CC(=O)N1[C@H](C)CN(c2nc(-c3c[nH]c4ncc(Cl)cc34)ccc2C#N)C[C@@H]1C [Compound 92] | < 500 nM | < 500 nM | < 500 nM | < 500 nM |
| CC(=O)N1[C@H](C)CN(c2ccc(C#N)c(-c3c[nH]c4ncc(Cl)cc34)n2)C[C@@H]1C [Compound 93] | < 500 nM | < 500 nM | 500 to 5000 nM | < 500 nM |
| CC(=O)N1[C@H](C)CN(c2cccc(-c3c[nH]c4ncc(OCCN5CCOCC5)cc34)n2)C[C@@H]1C [Compound 95] | 500 to 5000 nM | 500 to 5000 nM | 500 to 5000 nM | 500 to 5000 nM |
| CC(=O)N1[C@H](C)CN(c2cccc(-c3c[nH]c4ncc(OC5CCOC5)cc34)n2)C[C@@H]1C (stereo partly drawn) [Compound 96] | 500 to 5000 nM | < 500 nM | 500 to 5000 nM | < 500 nM |
| CC(=O)N1[C@H](C)CN(c2cc(C(N)=O)cc(-c3c[nH]c4ncc(Cl)cc34)n2)C[C@@H]1C [Compound 97] | < 500 nM | < 500 nM | 500 to 5000 nM | < 500 nM |
| CC(=O)N1[C@H](C)CN(c2cc(C#N)cc(-c3c[nH]c4ncc(Cl)cc34)n2)C[C@@H]1C [Compound 98] | < 500 nM | < 500 nM | 500 to 5000 nM | < 500 nM |
